Results: a melting point compilation (Tetko et al.; mined from patent text by program, amines drawn as free bases though some values may be those of a salt)

Compound | melting point [°C]
CCS(=O)(=O)ON=C(Cl)c1ccc(F)cc1 | 39 to 41.5
Cc1ccc(COc2ccc(CC(NC(=O)c3cc4cc(-c5ccc(Cl)cc5)ccc4s3)C(=O)O)cc2)cc1 (stereo unspecified) | 208
C#Cc1cc(C(=O)OC)ccc1S(C)(=O)=O | 95 to 98
CN1CCN2CCCOC2(c2ccccc2)c2cc(Cl)ccc21 (stereo unspecified) | 142 to 144
CC(C)(C)[Si](C)(C)Oc1ccc(S(N)(=O)=O)cc1 | 117 to 118
O=C/C(=C/c1ccc(Cl)cc1Cl)c1ccc(Cl)cc1 | 106 to 109
COc1cc(OC)c([N+](=O)[O-])c(OC)c1NC=O | 98
CCCc1nc2c(N)nc3cc(-c4ccc(F)cc4CN)ccc3c2s1 | 181 to 184
O=C(Nc1ccc(-n2nc(C(F)(F)F)cc2C(F)(F)F)cc1)c1ccc(F)c(Cl)c1 | 138 to 139
CCCCCCCCCCCCOc1ccc(CO)cc1 | 66.5 to 67
O=C1NC(=O)C2CC(SC3=CCC4C(=O)NC(=O)C4C3)=CCC12 (stereo unspecified) | 204 to 208
Clc1cc2c(cc1Cl)OCCO2 | 147 to 148
CCCCCCC1(c2cc(O)c([C@@H]3CC(=O)C4CC3C4(C)C)c(O)c2)OCCO1 (stereo partly specified) | 185 to 186
CN(C)C1=CCCS(=O)(=O)c2ccc(Cl)cc21 | 93 to 95
CSc1ccc(Br)cn1 | 39 to 40
Nc1c(Nc2ccon2)cnc2c1COCC2 | 209 to 211
CC(C)(C=O)C(O)(CCc1ccc(F)cc1)Cn1cncn1 (stereo unspecified) | 98
COCOc1cc(F)ccc1-c1cc(-c2cccc(NC(=O)CCN(C)C(=O)OC(C)(C)C)c2)c(C#N)c(NC(=O)c2ccco2)n1 | 172 to 174
Cc1ccc([C@@H](C)NCc2ccc(O)cc2)cc1 | 114 to 116
COc1ccc(CCc2c(Cl)cncc2Cl)c2cc(C#N)nn12 | 208 to 209

Compound | melting point [°C]
CCOC(=O)/C(CC(=O)O)=C(\c1ccc(Cl)cc1)c1ccc(S(C)(=O)=O)cc1 | 40 to 42
CCCCCCCN(Cc1ccc(C(C)(C)C)cc1)C(Nc1ccc(Cl)cc1)=C1C(=O)COC1=O | 101 to 104
CC(C)(C)NS(=O)(=O)Cc1cc(Br)c(NC(=O)C(F)(F)F)c(Br)c1 | 166 to 167
CC(C)(C)c1cc(P(c2ccccc2)c2cc(C(C)(C)C)c(O)c(C(C)(C)C)c2)cc(C(C)(C)C)c1O | 138 to 140
CCCCCCc1ccc(CCCCC(N)(CO)CO)cc1 | 99 to 102
Cc1cc(C)c2c(c1)-c1cc(Br)c(C)cc1P(=O)(O)O2 | 260
NC(=O)c1nnn(Cc2cc(Cl)c(C(=O)c3ccc(Cl)cc3)c(Cl)c2)c1N | 198 to 200
COc1cc(Nc2c(C#N)cnc3cc(-c4cscc4CN4CCOCC4)ccc23)c(Cl)cc1Cl | 188 to 190
Cc1cc2c(cc1O)C(C)(C)CC1(CC(C)(C)c3cc(OCCO)c(C)cc3O1)O2 (stereo unspecified) | 186 to 188
COC(=O)[C@@H]1C[C@H](OS(=O)(=O)c2ccccc2Br)C(=O)[C@@H]2[C@@]3(C)C[C@@H](c4ccoc4)OC(=O)[C@H]3CC[C@]21C | 162 to 163
N#CNc1nc2ccc(Cl)cc2[nH]1 | > 300
CC(C)(/C=C/Br)C(=O)O | 30
COC(=O)Cc1ccc(OCC(C)NCC(O)c2cccc(F)c2)cc1 (stereo unspecified) | 52
CC(C)(C)c1ccc(OCCOc2ccccc2[N+](=O)[O-])c([N+](=O)[O-])c1 | 114 to 116
Cc1ccc(S(=O)(=O)N(c2ccc(F)cc2[N+](=O)[O-])C(C)C)cc1 | 129 to 130
COc1ccc(C(=O)NC(=O)Nc2ccc3c(c2)NC(=O)/C3=C/c2ccc(Cl)cc2)cc1 | 278 to 283
OCC1CNC2Cc3c[nH]c4cccc(c34)C2(O)C1 (stereo unspecified) | 145 to 149
COc1ccc(C2(c3ccc(OC)cc3)CC2(Cl)Cl)cc1 | 138
CC(=O)OCc1cc(=O)c(Oc2ccc(Cl)cc2)c(-c2ccc(S(C)(=O)=O)cc2)o1 | 115
CNC(=O)c1ccc(C2=NOC(c3cc(Cl)cc(Cl)c3)(C(F)(F)F)C2)cc1C (stereo unspecified) | 184 to 185

Further lines, results first:

melting point [°C] | Compound
132 to 136 | c1ccc2sc(SSN3CCOCC3)nc2c1
166 to 167 | CC(C)(C)c1ccc(Oc2nc(-c3ccc(Cl)cc3)c(CCC(=O)O)o2)cc1
128 to 129 | CN(C)Cc1ccccc1Sc1ccc([N+](=O)[O-])cc1[N+](=O)[O-]
105 to 107 | O=C(O)c1ccccc1OCCN1CCC(c2cn(Cc3ccoc3)c3ncccc23)CC1
202 to 204 | CN1CCC(C(=O)Nc2ccc(CN(C)C3CCOCC3)cc2)=Cc2cc(-c3ccc(N4CCCCC4)cc3)ccc21
193 | CC(C)Oc1ccccc1C1(N[C@H](CO)c2ccccc2)C(=O)Nc2ccc(Cl)cc21 (stereo partly specified)
164 to 166 | O=C1[C@H]2CCCC[C@H]2Nc2ccccc2N1Cc1ccccc1 (relative stereo)
159 to 161 | Nc1nc(-c2cc(Cl)ccc2Cl)nc(N2CCC(Cc3ccccc3)CC2)n1
65 to 66 | COc1cccc2c(Oc3ccccc3)cccc12
125 to 129 | COc1ccc(S(=O)(=O)N(CCC(C)C)CC(O)C(Cc2ccccc2)NC(=O)C(C)CS(C)(=O)=O)cc1 (stereo unspecified)
101 to 102 | O=C1CCCCN1CCCC(=O)N1CCC(C2c3ncc(Br)cc3CCc3cc(Cl)cc(Br)c32)CC1 (single isomer, unassigned; (+))
64 to 65 | CCN(CC)C(=O)c1ccc(OC)cc1-c1ccccc1
168 | CN(C(=O)c1ccccc1)C(=O)c1nc(Cl)c(Cl)[nH]1
134 to 136 | CN(C)c1ncc2c(=O)n(CCc3ccccn3)sc2n1
224 | Cc1cc(OCc2ccccc2)cc(C)c1NC(=O)CN1CCN2C(C1)C(=O)NC2(C)C (stereo unspecified)
116 to 118 | CN(c1cccnc1Cl)S(=O)(=O)c1ccccc1[N+](=O)[O-]
140 to 141 | Cc1nc(-c2cn(CC3CC3)nn2)sc1C(=O)NCc1cccnc1
110 to 120 | O=C([C@@H]1O[C@H]1c1ccccc1)N(CC1CC1)[C@@H]1CCCC[C@H]1O
135 to 138 | COC(=O)c1ccccc1-c1nc2cc(C)ccc2o1

melting point [°C] | Compound
158 to 161 | Nc1cccc(-c2ccc(CCN3CCN(c4nc(-c5ccccc5)cs4)CC3)cc2)n1
127 to 128 | CC(C)n1nc(-c2sc(C(=O)NC3CC3)nc2-c2ccccc2)ccc1=O
68 to 68.6 | CCOC(=O)C(C)Oc1ccc(N(C)c2nc3cc(Cl)ccc3o2)cc1 (stereo unspecified)
96 to 97 | C[C@](O)(CNC(=O)c1cnc(OCC(F)(F)F)c(-c2ccc(Cl)cc2)n1)C1CC1
240 to 241 | O=S(=O)(c1ccccc1)n1c2cc(O)c(O)cc2c2cc(O)c(O)cc21
142 to 147 | NC1=NN(c2ccc(Cl)cn2)C(c2ccccc2)C1 (stereo unspecified)
210 to 211 | Oc1ccc(-c2c3ccccc3c(C(F)(F)F)c3sc4ccccc4c23)cc1
201 to 202 | CCOCc1nc2c(N)nc3ccccc3c2n1CCNC(=O)OC(C)(C)C
> 270 | CC(C)c1ccc(-c2nc(=O)n(Cc3ccccc3)c3ccc(O)cc23)cc1
126 to 128 | COc1ccc2c(c1)C(=NOCCN1CCCC1)c1c-2c(N2CCNCC2)nc2ccccc12
162 to 164 | CCOC(=O)c1cnc2c(OC)cccc2c1Nc1cscc1C
144 to 146 | C=CCSC1(C(F)(F)F)CN(C2CC2)C(=O)Nc2ccc(Cl)cc21 (stereo unspecified)
153 to 157 | O=C1CCCc2nc3ccccc3c(NCc3ccc(OCc4ccccc4)cc3)c21
101 to 102 | O=C(c1cc(C(F)(F)F)cc(C(F)(F)F)c1)N1CCN(C(=O)CN2CCC(O)(c3ccccc3)CC2)C(c2ccccc2)C1 (racemic)
112 to 113 | O=S(=O)(Nc1cccc(CCOCc2csc(-c3ccccc3)n2)c1)C(F)(F)F
47 to 48 | CCCCC[C@@H](C(=O)O)c1cccc2c1OCO2
109 to 111 | COC(=O)c1ccc2cc(OC)ccc2c1O
172 | Cn1cc(-c2ccccc2)c(=O)c(-c2cccc(Cl)c2)c1
63.5 to 64.5 | O=C(c1cnc2c(n1)CCCC2)C1CCCCC1

melting point [°C] | Compound
89 to 90 | CN(CCOc1ccc(CCOCCc2ncno2)cc1)c1nc2ccccc2o1
179 to 182 | COc1ccc(C2=NN(c3ccc([N+](=O)[O-])cc3)C(=O)[C@H]3CC=CC[C@@H]23)cc1OC (relative stereo)
120 | OCCCn1c(C2CCCCC2)nc2ccc(Cl)cc21
126 | CCOC(=O)/C(=N\OC1(C)CCCCC1)c1csc(N)n1
215 to 218 | COc1cc(C(=O)NS(=O)(=O)c2ccccc2C)ccc1Cc1cn(CC(=O)N(C)C)c2ccc(NC(=O)CC3CCCC3)cc12
260 to 262 | CCn1cc(C(=O)O)c(=O)c2cc(F)c(N3CC(N)C3)nc21
195 to 197 | COC(=O)NC1CCN(c2ncc3ncnc(Nc4ccc(F)c(Cl)c4)c3n2)CC1
97 to 98 | CC(C)N(CCON=C1c2ccccc2C2CC2c2ccccc21)C(C)C (stereo unspecified)
166 to 167 | Cc1c(-c2ccccc2)oc(=O)c(Sc2ccccc2)c1O
63 to 66 | CCC(C(=O)N(CC)CC)n1ccc(-c2ccccc2)n1 (stereo unspecified)
116 to 117 | CCN(CC)CCNC(=O)c1cccc2c(=O)c(C)c(-c3cccc(Cl)c3)oc12
212 to 214 | Cc1ccc(C(=O)NC(C)C)c(Nc2ccc3cn[nH]c3c2)n1
205 to 207 | COc1ccc(-c2ccc3cc(C4SC(=O)NC4=O)ccc3c2)cc1C12CC3CC(CC(C3)C1)C2 (stereo unspecified)
122 | CCN(CC)C(=O)n1cnc(S(=O)(=O)CC2CCCCO2)n1 (stereo unspecified)
144 to 146 | COc1ccccc1-c1c(NC(=O)OCc2ccccc2)oc(=O)c2ccccc12
194 to 196 | Oc1ccc(C2(c3ccccc3)OCCCC2c2ccccc2)cc1 (stereo unspecified)
48 to 50 | Cc1cc(CCC2CCC(COc3ccc(C4=NCCO4)cc3)CC2)on1 (stereo unspecified)
> 300 | COC(=O)Oc1nc2c(N)ncnc2n1Cc1ccccc1
